The values that follow come from PMC10870243 (Clinical and Translational Science, 2024).

Series [1] deals with CYP3A. In words: In vitro CYP3A induction in human hepatocytes. In kind it is in vitro ADME.
For series [2], the target named is T1, breast cancer resistance protein (BCRP) (Homo sapiens, UniProt Q9UNQ0).
T1 sequence (Q9UNQ0 1-655): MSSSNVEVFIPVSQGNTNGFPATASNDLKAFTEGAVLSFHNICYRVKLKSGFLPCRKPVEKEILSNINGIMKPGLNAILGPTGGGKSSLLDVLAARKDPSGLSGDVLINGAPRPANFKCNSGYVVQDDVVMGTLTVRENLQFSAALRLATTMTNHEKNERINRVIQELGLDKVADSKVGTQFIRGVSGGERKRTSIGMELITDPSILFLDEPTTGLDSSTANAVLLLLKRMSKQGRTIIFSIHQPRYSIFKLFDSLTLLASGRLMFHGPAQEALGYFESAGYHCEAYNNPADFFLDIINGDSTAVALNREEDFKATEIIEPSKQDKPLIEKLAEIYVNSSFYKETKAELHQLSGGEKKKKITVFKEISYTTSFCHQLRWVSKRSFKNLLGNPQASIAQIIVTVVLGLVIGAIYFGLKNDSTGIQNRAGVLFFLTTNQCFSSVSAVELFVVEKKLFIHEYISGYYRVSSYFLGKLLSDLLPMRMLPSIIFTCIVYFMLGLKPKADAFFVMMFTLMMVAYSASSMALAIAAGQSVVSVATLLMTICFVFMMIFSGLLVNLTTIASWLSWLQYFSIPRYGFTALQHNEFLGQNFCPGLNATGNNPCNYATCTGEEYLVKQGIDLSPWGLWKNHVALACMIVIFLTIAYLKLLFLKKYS
In words: In vitro efflux transporter study, BCRP. In kind it is in vitro ADME.

The target of series [3] is P‐glycoprotein (Pgp) (Homo sapiens, UniProt P08183). As to the kind of experiment: In vitro efflux transporter study, P-glycoprotein. Format: in vitro ADME.
The format of series [4] is in vivo, human. The following applies: for T max / Tmax: median (range); for PTR (peak-to-trough ratio): geometric mean; for CL/F: geometric mean (%CV); for Tmax: T max.
In series [5] the test system is CYP3A. The settings on record: healthy adults, total daily dose ≤720 mg; cited from earlier work.
Series [6] is described as follows: Phase I DDI study: safety and tolerability. In kind it is in vivo, human. The following applies: for overall safety and tolerability: healthy participants, clesacostat 15 mg b.i.d., ervogastat 300 mg b.i.d.
Series [7] is classed as in vivo, human.
Series [8] concerns CYP3A. In words: In vitro CYP3A time-dependent inhibition. In kind it is in vitro ADME. The following applies: 0–300 μM.
The mark [9] stands for this setting: ervogastat 300 mg + clesacostat 15 mg b.i.d., Day 14.
Where [10] appears, read: ervogastat 300 mg b.i.d. alone, Day 7.
Setting [11] is: clesacostat 15 mg b.i.d. co-administered with ervogastat 300 mg b.i.d.
[12] abbreviates: same participant, Day 9 (7 days clesacostat alone then 2 days with ervogastat).

Where two headings read alike, the source gives them in different places.

One may read the EC50 as the concentration at which the effect is half-maximal. Low values mean greater potency, high ones weaker potency. Broadly, the AUC is the area under the concentration-time curve, a measure of exposure. As usually defined, the Cmax is the highest concentration seen after dosing. Broadly, the Tmax is the time at which the peak concentration occurs.

Chain of P‐glycoprotein (Pgp) (P08183 whole entry): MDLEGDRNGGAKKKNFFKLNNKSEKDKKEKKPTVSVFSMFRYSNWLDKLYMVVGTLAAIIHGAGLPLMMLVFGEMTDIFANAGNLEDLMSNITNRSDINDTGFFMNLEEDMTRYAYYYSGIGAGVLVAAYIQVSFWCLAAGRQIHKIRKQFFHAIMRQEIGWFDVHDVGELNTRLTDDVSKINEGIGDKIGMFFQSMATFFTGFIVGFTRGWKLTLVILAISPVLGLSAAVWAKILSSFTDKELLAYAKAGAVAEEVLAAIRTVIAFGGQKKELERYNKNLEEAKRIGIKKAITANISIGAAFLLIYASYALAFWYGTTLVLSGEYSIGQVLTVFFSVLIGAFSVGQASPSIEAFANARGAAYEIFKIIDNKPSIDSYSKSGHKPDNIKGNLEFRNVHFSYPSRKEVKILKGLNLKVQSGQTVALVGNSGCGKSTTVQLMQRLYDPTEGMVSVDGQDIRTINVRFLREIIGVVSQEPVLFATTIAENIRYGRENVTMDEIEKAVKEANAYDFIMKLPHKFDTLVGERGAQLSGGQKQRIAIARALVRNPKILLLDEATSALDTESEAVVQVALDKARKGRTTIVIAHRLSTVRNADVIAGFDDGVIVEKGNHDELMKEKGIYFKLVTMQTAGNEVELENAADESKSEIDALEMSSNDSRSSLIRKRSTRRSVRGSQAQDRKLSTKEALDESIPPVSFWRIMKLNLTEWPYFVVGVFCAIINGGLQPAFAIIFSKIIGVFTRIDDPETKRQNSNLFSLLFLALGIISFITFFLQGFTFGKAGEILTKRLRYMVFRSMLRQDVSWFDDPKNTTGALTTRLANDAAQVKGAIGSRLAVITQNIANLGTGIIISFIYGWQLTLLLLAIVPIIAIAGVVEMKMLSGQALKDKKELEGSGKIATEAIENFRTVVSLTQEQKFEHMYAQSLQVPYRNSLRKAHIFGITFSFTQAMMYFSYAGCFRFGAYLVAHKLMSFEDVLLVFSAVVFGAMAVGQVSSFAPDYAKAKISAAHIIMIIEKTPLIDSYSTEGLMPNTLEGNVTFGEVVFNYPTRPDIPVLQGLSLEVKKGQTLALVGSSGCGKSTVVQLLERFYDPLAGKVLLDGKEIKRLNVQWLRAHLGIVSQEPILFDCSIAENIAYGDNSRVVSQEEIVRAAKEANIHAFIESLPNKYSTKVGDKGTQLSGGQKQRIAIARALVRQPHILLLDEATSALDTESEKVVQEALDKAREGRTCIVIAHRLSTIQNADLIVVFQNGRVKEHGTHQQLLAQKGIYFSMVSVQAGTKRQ

In series [1], `CCOc1cccnc1Oc1cncc(-c2ncc(C(=O)N[C@H]3CCOC3)cn2)c1` [ervogastat] yielded an EC50 of 21.4 to 37.2 µM. For the same molecule, in series [2], the “inhibition of BCRP” value is “may inhibit” and the “substrate for BCRP” value is “substrates”. In series [3], the “inhibition of Pgp” value is listed as “may inhibit” and the “substrate for Pgp” value is reported as “substrates”. The T max in series [4] (ervogastat 300 mg + clesacostat 15 mg b.i.d., Day 14, n=9) is given as 2.00 (1.00–2.00) h. For the same molecule, in series [4] (setting [9]), the PTR (peak-to-trough ratio) worked out at 150 and the CL/F is on record as 31.76 (34) L/h. Also, in series [4] (ervogastat 300 mg b.i.d. alone, Day 7, n=9), the T max is recorded as 2.00 (1.00–4.00) h. Also, in series [4] (setting [10]), the PTR (peak-to-trough ratio) was determined as 94.3 and the CL/F is 34.41 (19) L/h. In series [4] (human, plasma, oral, 300 mg), this molecule registered an AUC of 8720 ng·h/mL and a Cmax of 2390 ng/mL. The time of peak concentration (Tmax) in series [4] (human, plasma, oral, 300 mg, ervogastat 300 mg b.i.d. alone, Day 7, n=9) was about 2 h. The Tmax in series [4] (human, plasma, oral, ervogastat 300 mg + clesacostat 15 mg b.i.d., Day 14, n=9) is about 2 h. The “change in 4β-hydroxycholesterol” value in series [5] is reported as “no changes”. In addition, in series [6], the “overall safety and tolerability” value was “generally safe and well tolerated”.

With `COc1cc(C(=O)N2CCC3(CC2)CC(=O)c2c(cnn2C(C)C)C3)cc(-c2ccc(C(=O)O)cc2)n1` [clesacostat], in series [7] (setting [11]), the “decrease in mean systemic exposure based on AUCtau” value was 19% and the “decrease in mean systemic exposure based on C max” value was found to be 12%. In addition, in series [7] (human, plasma, oral, 15 mg), the AUC was found to be 12100 ng·h/mL, the concentration peaked (Cmax) at 1340 ng/mL and the Tmax came out at 4 h. The “substrate for BCRP” value in series [2] is given as “substrates”. In addition, the “substrate for Pgp” value in series [3] is listed as “substrates”. For the same molecule, in series [8] (midazolam as probe), the “composite slope based on observed inactivation rate constant (k obs)” value amounted to 0.452 M⁻¹ s⁻¹. For the same molecule, in series [8] (testosterone as probe), the “composite slope based on observed inactivation rate constant (k obs)” value is 0.398 M⁻¹ s⁻¹. In series [6], the “overall safety and tolerability” value is “generally safe and well tolerated”. In series [6] (setting [12]), this molecule gave an ALT elevation of 3.8 × ULN, an AST elevation of 2.9 × ULN and a GGT elevation of 3.3 × ULN.
